Data on 22 compounds can be found in patent US20250195530A1, “POLQ INHIBITORS” (ASTRAZENECA AB, priority 2022, published 2025).

One experiment relates to DLD-1 BRCA2−/− cells. The experiment in a line: Homologous recombination synthetic lethal inhibition of proliferation, DLD-1 BRCA2-/- (Cell Titre Glo 3D). The class given is cell-based. As to conditions: DLD-1 BRCA2 −/−, mean. In short, it runs like this:
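DLD-1 BRCA2−/− (3,000 cells/mL) and parental DLD-1 (1,500 cells/mL) cells in phenol red-free RPMI 1640 with 10% FBS were exposed to a 10-point, three-fold compound series from 10 μM to 0.51 nM at 37 °C, 5% CO2. Medium and compound were replenished on day 6. CellTiter-Glo 3D luminescence was read on day 7 (DLD-1) or day 12 (BRCA2−/−), and IC50 was taken as 50% reduction of maximum signal.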
In the case of `CC1(Oc2ncnc3c2nc(-c2ccc(O[C@H]4CC[C@@H](C(=O)O)CC4)cc2Cl)n3Cc2ccccc2C#N)CC1` [Example U16, (1s,4s)-4-(3-chloro-4-(9-(2-cyanobenzyl)-6-(1-methylcyclopropoxy)-9H-purin-8-yl)phenoxy)cyclohexane-1-carboxylic acid], the “POLQ PD Prolif Lumin BRCA2 −/− mean pIC50” value came to 6.4.

Take `CC1(Oc2ncnc3c2nc(-c2ccc(O[C@H]4CC[C@H](C(=O)O)CC4)cc2Cl)n3Cc2ccccc2C#N)CC1` [Example U19, (1r,4r)-4-(3-chloro-4-(9-(2-cyanobenzyl)-6-(1-methylcyclopropoxy)-9H-purin-8-yl)phenoxy)cyclohexane-1-carboxylic acid]: the “POLQ PD Prolif Lumin BRCA2 −/− mean pIC50” value came to 6.6.

For the compound `CC1(Oc2ncnc3c2nc(-c2ccc(OC[C@H]4C[C@H](C(=O)O)C4)cc2Cl)n3Cc2ccccc2C#N)CC1` [Example U27, (1r,3r)-3-((3-chloro-4-(9-(2-cyanobenzyl)-6-(1-methylcyclopropoxy)-9H-purin-8-yl)phenoxy)methyl)cyclobutane-1-carboxylic acid], the “POLQ PD Prolif Lumin BRCA2 −/− mean pIC50” value amounted to 6.7.

Take `CC1(Oc2ncnc3c2nc(-c2ccc(O[C@H]4CC[C@@H](C(=O)O)CC4)cc2Cl)n3Cc2cc(Cl)ccc2F)CC1` [Example U44, (1s,4s)-4-(3-chloro-4-(9-(5-chloro-2-fluorobenzyl)-6-(1-methylcyclopropoxy)-9H-purin-8-yl)phenoxy)cyclohexane-1-carboxylic acid]: the “POLQ PD Prolif Lumin BRCA2 −/− mean pIC50” value is 7.2.

Turning to `CC1(Oc2ncnc3c2nc(-c2ccc(O[C@H]4CC[C@H](C(=O)O)CC4)cc2Cl)n3Cc2cc(Cl)ccc2F)CC1` [Example U49, (1r,4r)-4-(3-chloro-4-(9-(5-chloro-2-fluorobenzyl)-6-(1-methylcyclopropoxy)-9H-purin-8-yl)phenoxy)cyclohexane-1-carboxylic acid], the “POLQ PD Prolif Lumin BRCA2 −/− mean pIC50” value turned out to be 7.3.

The same experiment, now with this note: Homo sapiens, DLD-1, DLD-1 BRCA2 −/−, mean; read-out: POLQ PD Prolif Lumin BRCA2 −/− mean pIC50 (converted).
As for `CC1(Oc2ncnc3c2nc(-c2ccc(OCC4(CC(=O)O)CC4)cc2Cl)n3Cc2ccccc2C#N)CC1` [Example U15, 2-(1-((3-chloro-4-(9-(2-cyanobenzyl)-6-(1-methylcyclopropoxy)-9H-purin-8-yl)phenoxy)methyl)cyclopropyl)acetic acid], the IC50 was 794 nM.

As for `CC1(Oc2ncnc3c2nc(-c2ccc(OCCC(C)(C)C(=O)O)cc2Cl)n3Cc2ccccc2C#N)CC1` [Example U17, 4-(3-chloro-4-(9-(2-cyanobenzyl)-6-(1-methylcyclopropoxy)-9H-purin-8-yl)phenoxy)-2,2-dimethylbutanoic acid], the IC50 is 251 nM.

Turning to `CC1(Oc2ncnc3c2nc(-c2ccc(CCCCC(=O)O)cc2Cl)n3Cc2ccccc2C#N)CC1` [Example U20, 5-(3-chloro-4-(9-(2-cyanobenzyl)-6-(1-methylcyclopropoxy)-9H-purin-8-yl)phenyl)pentanoic acid], the IC50 is 251 nM.

Consider `CC1(Oc2ncnc3c2nc(-c2ccc(OCCCC(C)(C)C(=O)O)cc2Cl)n3Cc2ccccc2C#N)CC1` [Example U21, 5-(3-chloro-4-(9-(2-cyanobenzyl)-6-(1-methylcyclopropoxy)-9H-purin-8-yl)phenoxy)-2,2-dimethylpentanoic acid], for which the IC50 is 158 nM.

Turning to `CC1(Oc2ncnc3c2nc(-c2cccc(OCCC(=O)O)c2Cl)n3Cc2cc(Cl)ccc2F)CC1` [Example U32, 3-(2-chloro-3-(9-(5-chloro-2-fluorobenzyl)-6-(1-methylcyclopropoxy)-9H-purin-8-yl)phenoxy)propanoic acid], the IC50 is 39.8 nM.

With `CC1(Oc2ncnc3c2nc(-c2ccc(OCCC(C)(C)C(=O)O)cc2Cl)n3Cc2cc(Cl)ccc2F)CC1` [Example U46, 4-(3-chloro-4-(9-(5-chloro-2-fluorobenzyl)-6-(1-methylcyclopropoxy)-9H-purin-8-yl)phenoxy)-2,2-dimethylbutanoic acid], the IC50 is 31.6 nM.

As for `CC1(Oc2ncnc3c2nc(-c2cccc(OCC(F)(F)CC(=O)O)c2Cl)n3Cc2cccc(Cl)c2)CC1` [Example U63, 4-(2-chloro-3-(9-(3-chlorobenzyl)-6-(1-methylcyclopropoxy)-9H-purin-8-yl)phenoxy)-3,3-difluorobutanoic acid], the IC50 was 501 nM.

Turning to `CC1(Oc2ncnc3c2nc(-c2c(F)ccc(OCCC(=O)O)c2Cl)n3Cc2cccc(Cl)c2)CC1` [Example U66, 3-(2-chloro-3-(9-(3-chlorobenzyl)-6-(1-methylcyclopropoxy)-9H-purin-8-yl)-4-fluorophenoxy)propanoic acid], the IC50 is 200 nM.

Regarding `COc1ccc(F)cc1Cn1c(-c2cccc(OCC[C@H](C)C(=O)O)c2Cl)nc2c(OC3(C)CC3)ncnc21` [Example U72, (S)-4-(2-chloro-3-(9-(5-fluoro-2-methoxybenzyl)-6-(1-methylcyclopropoxy)-9H-purin-8-yl)phenoxy)-2-methylbutanoic acid], the IC50 was 1.58 nM.

The same experiment, now with this note: Homo sapiens, DLD-1, first proliferation column; DLD-1 BRCA2-/-; read-out: POLQ PD Prolif Lumin (converted).
In the case of `CC(C)(C)Oc1cccc2c1nc(-c1ccc(OCCN3CCNCC3)cc1Cl)n2Cc1cccc(Cl)c1` [Example T608, 4-(tert-butoxy)-2-(2-chloro-4-(2-(piperazin-1-yl)ethoxy)phenyl)-1-(3-chlorobenzyl)-1H-benzo[d]imidazole], the IC50 is 501 nM.

In the case of `Cc1ccnc(Cn2c(-c3ccc(OCCN4CCN(C)CC4)cc3Cl)nc3c(OC(C)(C)C)nccc32)c1` [Example T610, 4-(tert-butoxy)-2-(2-chloro-4-(2-(4-methylpiperazin-1-yl)ethoxy)phenyl)-1-((4-methylpyridin-2-yl)methyl)-1H-imidazo[4,5-c]pyridine], the IC50 was > 7940 nM.

Regarding `CC1(Oc2cccc3c2nc(-c2ccc(OCCN4CCNCC4)cc2Cl)n3Cc2cccc(Cl)c2)CCC1` [Example T611, 2-(2-chloro-4-(2-(piperazin-1-yl)ethoxy)phenyl)-1-(3-chlorobenzyl)-4-(1-methylcyclobutoxy)-1H-benzo[d]imidazole], the IC50 was 316 nM.

The test system of a further experiment is DLD-1 cells. The experiment in a line: Inhibition of proliferation, DLD-1 BRCA2 wt control (Cell Titre Glo 3D). The class given is cell-based. As to conditions: Homo sapiens, DLD-1, 168 h, DLD-1 BRCA2 wt cells, 7 days; read-out: POLQ PD Prolif Lumin DLD1 mean pIC50 (converted). From the text:
This assay identifies anti-proliferative effects of POLQ compounds in the homologous recombination deficient colorectal cell line DLD-1 BRCA2−/− over 8-9 population doublings (7 days for DLD-1 and 12 days for DLD-1 BRCA2−/−). DLD1 BRCA2 wt are used as a control to detect cell toxic effects not specific to homologous recombination deficiency.
DLD-1 BRCA2−/− and DLD-1 cells were kept in continuous culture in Assay Medium (RPMI 1640 phenol red free (Sigma R7509) containing 1% GlutaMAX (Gibco 35050) and 10% Foetal Bovine Serum (Gibco 10270-106)). On the day of the assay cells in culture of ˜80-90% confluent were used. Cell monolayers were washed with 10 mL PBS, then removed and added 2 mL TrypLE Express (Gibco 12604). The cells with TrypLE Express were incubated for 5 minutes in cell culture incubator and then the detached cells resuspend in 15 mL Assay Medium. Cells were counted using a ViCell and the cell images were monitored for clumps of cells, ideally they should be single or <3 cell clusters. The cells were diluted to 3,000 cells/mL of DLD-1 BRCA2−/− and 1,500 cells/mL of DLD-1 in Assay Medium and 100 μL added per well of transparent bottomed, black, tissue culture-treated 96-well plates (CoStar, No. 3904) Assay Ready Plates. The Assay Ready Plates contain a 10 point 10 μM to 0.51 nM dose range with three-fold dilutions in DMSO with a final volume of 100 nL. The plates were incubated at 37° C. with 5% C02 for 6 days. On day 6, 100 μL/well of Assay Medium was added to duplicate Assay Ready Plates. 90 μL of culture medium was removed from the cell plates and replenished with the Assay Media and compounds from the duplicate Assay Ready Plates using the Bravo. The plates were further incubated at 37° C. with 5% CO2. On day 7 the plates containing DLD-1 and Cell Titre Glo 3D (Promega G9683) were equilibrated to room temperature, then 60 μL of Cell Titre Glo 3D was added per well and incubated on a shaking platform for 30 min. Plates were read on the Envision measuring luminescence for 1 second per well. On day 12 the plates containing DLD-1 BRCA2−/− cells and Cell Titre Glo 3D (Promega G9683) were equilibrated to room temperature, then 60 μL Cell Titre Glo 3D added per well and incubated on a shaking platform for 30 min. Plates were read on the Envision measuring luminescence for 1 second per well. The data was exported into a suitable software package (such as Genedata) to perform curve fitting analysis. Inhibition of cell proliferation was expressed as an IC5o value and was determined by calculation of the concentration of compound that was required to give a 50% reduction of the average maximum Total Intensity signal.
As for `Cc1cc(OC2CNC2)ncc1-c1nc2c(OC3(C)CC3)ncnc2n1Cc1ccccc1` [Example G17, 8-{6-[(azetidin-3-yl)oxy]-4-methylpyridin-3-yl}-9-benzyl-6-[(1-methylcyclopropyl)oxy]-9H-purine], the IC50 was 7940 nM.

Regarding `CC1(Oc2ncnc3c2nc(-c2ccc(OCCN4CCNCC4)cc2Cl)n3CCc2ccccn2)CC1` [Example J11, 8-(2-chloro-4-(2-(piperazin-1-yl)ethoxy)phenyl)-6-(1-methylcyclopropoxy)-9-(2-(pyridin-2-yl)ethyl)-9H-purine], the IC50 was > 10000 nM.

Staying with this experiment, now noted: Homo sapiens, DLD-1, second proliferation column (c6); DLD-1 BRCA2 wt control; read-out: POLQ PD Prolif Lumin (converted).
Consider `Cc1ccnc(Cn2c(-c3ccc(C4CCC(=O)N4)cc3Cl)nc3c(OC4(C)CC4)ncnc32)c1` (single isomer, unassigned) [Example T173, 5-(3-chloro-4-(6-(1-methylcyclopropoxy)-9-((4-methylpyridin-2-yl)methyl)-9H-purin-8-yl)phenyl)pyrrolidin-2-one], for which the IC50 is > 10000 nM.

As for `Cc1ccnc(Cn2c(-c3ccc(OC4CCCNCC4)cc3Cl)nc3c(OC4(C)CC4)ncnc32)c1` (single isomer, unassigned) [Example T509, 8-(4-(azepan-4-yloxy)-2-chlorophenyl)-6-(1-methylcyclopropoxy)-9-((4-methylpyridin-2-yl)methyl)-9H-purine], the IC50 is > 10000 nM.

`Cn1cnnc1Cn1c(-c2ccc(OCCN3CCNCC3)cc2Cl)nc2c(OC3(C)CC3)ncnc21` [Example T150, 8-(2-chloro-4-(2-(piperazin-1-yl)ethoxy)phenyl)-9-((4-methyl-4H-1,2,4-triazol-3-yl)methyl)-6-(1-methylcyclopropoxy)-9H-purine]: the IC50 is > 10000 nM.
